biological target: T1, human glucagon receptor (Homo sapiens, UniProt P47871); assay: Glucagon Binding Assay (III); settings: BHK cell membranes, WGA SPA beads, 125I-glucagon; read-out: Glu Bd Assay (III) IC50
T1 construct: expressed in transfected cells; host or cells: BHK (baby hamster kidney) cells
Method in brief: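 Membranes from BHK cells transfected with the human receptor, prepared at 4 °C, were used in a WGA-bead scintillation proximity binding format. Plates were shaken for 4 hours, left to settle 8–48 hours and then counted. Non-specific binding was defined with 500 nM glucagon.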

T1 sequence (P47871 26-477): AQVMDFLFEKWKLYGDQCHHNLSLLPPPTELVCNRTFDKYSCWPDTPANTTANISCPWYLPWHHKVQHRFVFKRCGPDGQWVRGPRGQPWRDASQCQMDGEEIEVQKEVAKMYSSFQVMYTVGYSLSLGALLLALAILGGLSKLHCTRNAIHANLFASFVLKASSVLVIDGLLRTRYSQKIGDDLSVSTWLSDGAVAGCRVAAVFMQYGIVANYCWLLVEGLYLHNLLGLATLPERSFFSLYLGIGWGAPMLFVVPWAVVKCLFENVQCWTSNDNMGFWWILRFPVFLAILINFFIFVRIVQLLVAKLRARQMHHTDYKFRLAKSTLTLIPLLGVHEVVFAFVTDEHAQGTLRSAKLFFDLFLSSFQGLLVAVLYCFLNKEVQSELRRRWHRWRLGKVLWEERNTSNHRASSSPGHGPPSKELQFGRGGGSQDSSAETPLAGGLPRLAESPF

Row | SMILES | IC50 [nM]
1 | CC(Oc1cccc(Cl)c1)C(=O)N(Cc1ccc(C(=O)Nc2nn[nH]n2)cc1)C1CCC(C(C)(C)C)CC1 (stereo not shown) [Example 548, 4-({(4-tert-Butylcyclohexyl)-[2-(3-chlorophenoxy)propionyl]amino}methyl)-N-(2H-tetrazol-5-yl)benzamide] | 309
2 | CC(C)(C)C1CCC(N(Cc2ccc(C(=O)NCCC(=O)O)cc2)C(=O)Nc2ccc(SC(F)(F)F)cc2)CC1 (stereo not shown) [Example 58, 3-{4-[1-(4-tert-Butylcyclohexyl)-3-(4-trifluoromethylsulfanylphenyl)ureidomethyl]benzoylamino}propionic acid] | 139
3 | COc1cc(OC)c(NC(=O)N(Cc2ccc(C(=O)NCCC(=O)O)cc2)C2CCC(C(C)(C)C)CC2)cc1Cl (stereo not shown) [Example 24, 3-{4-[1-(4-tert-Butylcyclohexyl)-3-(5-chloro-2,4-dimethoxyphenyl)ureidomethyl]benzoylamino}propionic acid] | 1700
4 | CC(C)(C)[C@H]1CC[C@H](N(Cc2ccc(C(=O)Nc3nn[nH]n3)cc2)C(=O)Nc2cc(C(F)(F)F)cc(C(F)(F)F)c2)CC1 [Example 375, 4-[3-(3,5-Bis(trifluoromethyl)phenyl)-1-(trans-4-tert-butylcyclohexyl)ureidomethyl]-N-(2H-tetrazol-5-yl)benzamide] | 29
5 | CCCCc1ccc(N(Cc2ccc(C(=O)NCCC(=O)O)cc2)C(=O)Nc2ccc(OC(F)(F)F)cc2)c(C)c1 [Example 440, 3-{4-[1-(4-Butyl-2-methylphenyl)-3-(4-trifluoromethoxyphenyl)ureidomethyl]benzoylamino}propionic acid] | 509
6 | CC(C)(C)[C@H]1CC[C@H](N(Cc2ccc(C(=O)Nc3nn[nH]n3)cc2)C(=O)Nc2ccc(OCC3CC3)cc2C(F)(F)F)CC1 [Example 334, 4-[1-(trans-4-tert-Butylcyclohexyl)-3-(4-cyclopropylmethoxy-2-trifluoromethylphenyl)ureidomethyl]-N-(2H-tetrazol-5-yl)benzamide] | 288
7 | CC(Oc1ccc(OC(F)(F)F)cc1)C(=O)N(Cc1ccc(C(=O)Nc2nn[nH]n2)cc1)c1ccc(N2CCCCC2)cc1 (stereo not shown) [Example 554, 4-({(4-Piperidin-1-ylphenyl)-[2-(4-trifluoromethoxyphenoxy)propionyl]amino}methyl)-N-(2H-tetrazol-5-yl)benzamide] | 788
8 | CC(C)(C)C1CCC(N(Cc2ccc(C(=O)Nc3nn[nH]n3)cc2)C(=O)CCCc2ccccc2)CC1 (stereo not shown) [Example 545, 4-([(4-tert-Butylcyclohexyl)-(4-phenylbutyryl)amino]methyl}-N-(2H-tetrazol-5-yl)benzamide] | 47
9 | CC(C)(C)C1CCC(N(Cc2ccc(C(=O)Nc3nn[nH]n3)cc2)C(=O)Nc2cccc(S(C)(=O)=O)c2)CC1 (stereo not shown) [Example 445, 4-[1-(4-tert-Butylcyclohexyl)-3-(3-methylsulfonylphenyl)ureidomethyl]-N-(2H-tetrazol-5-yl)benzamide] | 204
10 | CC(C)(C)C1CCC(N(Cc2ccc(C(=O)NCCC(=O)O)cc2)C(=O)Oc2cc(Cl)cc(Cl)c2)CC1 (stereo not shown) [Example 402, 3-(4-{[(4-tert-Butylcyclohexyl)-(3,5-dichlorophenoxycarbonyl)amino]methyl}benzoylamino)propionic acid] | 176
11 | CC(C)c1ccc(CN(Cc2ccc(C(=O)NCCC(=O)O)cc2)C(=O)Nc2ccc(OC(F)(F)F)cc2)cc1 [Example 433, 3-{4-[1-(4-Isopropylbenzyl)-3-(4-trifluoromethoxyphenyl)ureidomethyl]benzoylamino}propionic acid] | 1250
12 | CC(C)(C)C1CCC(N(Cc2ccc(C(=O)Nc3nn[nH]n3)cc2)C(=O)Cc2ccc(OC(F)(F)F)cc2)CC1 (stereo not shown) [Example 502, 4-({(4-tert-Butylcyclohexyl)-[2-(4-trifluoromethoxyphenyl)acetyl]amino}methyl)-N-(2H-tetrazol-5-yl)benzamide] | 28
13 | CC(=O)c1ccc(NC(=O)N(Cc2ccc(C(=O)Nc3nn[nH]n3)cc2)C2CCC(C(C)(C)C)CC2)cc1 (stereo not shown) [Example 273, 4-[3-(4-Acetylphenyl)-1-(4-tert-butylcyclohexyl)ureidomethyl]-N-(2H-tetrazol-5-yl)benzamide] | 319
14 | CCCCC(CC)CN(Cc1ccc(C(=O)NCCC(=O)O)cc1)C(=O)Nc1ccc(OC(F)(F)F)cc1 (stereo not shown) [Example 96, 3-{4-[1-(2-Ethylhexyl)-3-(4-trifluoromethoxyphenyl)ureidomethyl]benzoylamino}propionic acid] | 137
15 | CC(C)c1ccc(NC(=O)N(Cc2ccc(C(=O)NCCC(=O)O)cc2)C2CC3CC(C2C)C3(C)C)cc1 (stereo not shown) [Example 66, 3-{4-[3-(4-Isopropylphenyl)-1-(2,6,6-trimethylbicyclo[3.1.1]hept-3-yl)ureidomethyl]benzoylamino}propionic acid] | 267
16 | CCOC(=O)N1CCC(NC(=O)N(Cc2ccc(C(=O)NCCC(=O)O)cc2)[C@H]2CC[C@H](C(C)(C)C)CC2)CC1 [Example 245, 4-{3-(trans-4-tert-Butylcyclohexyl)-3-[4-(2-carboxyethylcarbamoyl)benzyl]ureido}piperidine-1-carboxylic acid ethyl ester] | 4050
17 | CCCCN1C(=O)c2ccc(NC(=O)N(Cc3ccc(C(=O)NCCC(=O)O)cc3)C3CCC(C(C)(C)C)CC3)cc2C1=O (stereo not shown) [Example 637, 3-{4-[1-(4-tert-Butylcyclohexyl)-3-(N′-butylphthalimid-4-yl)ureidomethyl]benzoylamino}propionic acid] | 116
18 | CC(C)(C)C1CCC(N(Cc2ccc(C(=O)NCCC(=O)O)cc2)C(=O)c2cccc(C(F)(F)F)c2)CC1 (stereo not shown) [Example 527, 3-(4-{[(4-tert-Butylcyclohexyl)-(3-trifluormethylbenzoyl)amino]methyl}benzoylamino)propionic acid] | 660

The next lines start with the values.

Row | IC50 [nM] | SMILES
19 | 23 | CC(C)c1noc(-c2cccc(NC(=O)N(Cc3ccc(C(=O)Nc4nn[nH]n4)cc3)c3ccc(C4CCCCC4)cc3)c2)n1 [Example 468, 4-{1-(4-Cyclohexylphenyl)-3-[3-(3-isopropyl-[1,2,4]oxadiazol-5-yl)phenyl]ureidomethyl}-N-(2H-tetrazol-5-yl)benzamide]
20 | 1430 | COc1ccc2nc(NC(=O)N(Cc3ccc(C(=O)Nc4nn[nH]n4)cc3)c3ccc(C4CCCCC4)cc3)sc2c1 [Example 365, 4-[1-(4-Cyclohexylphenyl)-3-(6-methoxybenzothiazol-2-yl)ureidomethyl]-N-(2H-tetrazol-5-yl)benzamide]
21 | 14 | O=C(Nc1nn[nH]n1)c1ccc(CN(C(=O)Nc2ccc(F)c(C(F)(F)F)c2)c2ccc(C3=CCCCC3)cc2)cc1 [Example 328, 4-[1-(4-Cyclohex-1-enylphenyl)-3-(4-fluoro-3-trifluoromethylphenyl)ureidomethyl]-N-(2H-tetrazol-5-yl)benzamide]
22 | 6 | CC(C)(C)c1ccc(N(Cc2ccc(C(=O)Nc3nn[nH]n3)cc2)C(=O)Nc2ccc3c(c2)C(=O)N(CC2CC2)C3=O)cc1 [Example 640, 4-[1-(4-tert-Butylphenyl)-3-(N′-[cyclopropylmethyl]phthalimid-4-yl)ureidomethyl]-N-(2H-tetrazol-5-yl)benzamide]
23 | 18 | O=C(Nc1nn[nH]n1)c1ccc(CN(C(=O)Nc2cc(F)cc(C(F)(F)F)c2)c2ccc(C3CCCCC3)cc2)cc1 [Example 262, 4-[1-(4-Cyclohexylphenyl)-3-(3-fluoro-5-trifluoromethylphenyl)ureidomethyl]-N-(2H-tetrazol-5-yl)benzamide]
24 | 209 | CC(O)c1cccc(NC(=O)N(Cc2ccc(C(=O)Nc3nn[nH]n3)cc2)c2ccc(C3CCCCC3)cc2)c1 (stereo not shown) [Example 306, 4-{1-(4-Cyclohexylphenyl)-3-[3-(1-hydroxyethyl)phenyl]ureidomethyl}-N-(2H-tetrazol-5-yl)benzamide]
25 | 55 | Cc1ccc(NC(=O)N(Cc2ccc(C(=O)Nc3nn[nH]n3)cc2)c2ccc(C3CCCCC3)cc2)cc1S(C)(=O)=O [Example 305, 4-[1-(4-Cyclohexylphenyl)-3-(3-methylsulfonyl-4-methylphenyl)ureidomethyl]-N-(2H-tetrazol-5-yl)benzamide]
26 | 45 | CSc1cccc(NC(=O)N(Cc2ccc(C(=O)Nc3nn[nH]n3)cc2)c2ccc(C(C)(C)C)cc2)c1 [Example 293, 4-[1-(4-tert-Butylphenyl)-3-(3-methylsulfanylphenyl)ureidomethyl]-N-(2H-tetrazol-5-yl)benzamide]
27 | 185 | CCCCc1ccc(N(Cc2ccc(C(=O)Nc3nn[nH]n3)cc2)C(=O)Nc2cccc(C#N)c2)cc1 [Example 281, 4-[1-(4-Butylphenyl)-3-(3-cyanophenyl)ureidomethyl]-N-(2H-tetrazol-5-yl)benzamide]
28 | 6 | O=C(Nc1nn[nH]n1)c1ccc(CN(C(=O)Nc2cccc(Br)c2)c2ccc(C3=CCCCC3)cc2)cc1 [Example 349, 4-[3-(3-Bromophenyl)-1-(4-cyclohex-1-enylphenyl)ureidomethyl]-N-(2H-tetrazol-5-yl)benzamide]
29 | 566 | CC(O)c1cccc(NC(=O)N(Cc2ccc(C(=O)Nc3nn[nH]n3)cc2)c2ccc(C(C)(C)C)cc2)c1 (stereo not shown) [Example 309, 4-{1-(4-tert-Butylphenyl)-3-[3-(1-hydroxyethyl)phenyl]ureidomethyl}-N-(2H-tetrazol-5-yl)benzamide]
30 | 788 | CSc1cccc(NC(=O)N(Cc2ccc(C(=O)Nc3nn[nH]n3)cc2)c2ccc(N3CCCCC3)cc2)c1 [Example 317, 4-[3-(3-Methylsulfanylphenyl)-1-(4-piperidin-1-ylphenyl)ureidomethyl]-N-(2H-tetrazol-5-yl)benzamide]

same assay, conditions: Glu Bd Assay (III) IC50 (nM), BHK cell membranes, WGA SPA beads, 125I-glucagon

Row | SMILES | IC50 [nM]
31 | CC(C)(C)[C@H]1CC[C@H](N(Cc2ccc(C(=O)NCCC(=O)O)cc2)C(=O)Nc2ccc(OC(F)(F)F)cc2Br)CC1 [Example 242, 3-{4-[3-(2-Bromo-4-trifluoromethoxyphenyl)-1-(trans-4-tert-butylcyclohexyl)ureidomethyl]benzoylamino}propionic acid] | 153

From US6875760B2 (Novo Nordisk A/S, priority 1999, dated 2005)
